The test system of this assay is monocistronic NK5.1 HCV replicon in Huh7 cells. Briefly: HCV replicon assay, monocistronic replicon cell line. As to conditions: Hepatitis C virus, Huh-7; monocistronic NK5.1 HCV replicon in Huh7 cells; median value; read-out: Mono EC50 Median. Type of assay: cell-based, hepatitis C virus. The procedure, abridged: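 EC50 derives from the HCV RNA/GAPDH RNA ratio by one-step TaqMan RT-PCR, relative to DMSO-only wells. Compounds (six half-log concentrations, 0.6% DMSO) were incubated 3 days at 37 °C with NK5.1 monocistronic replicon Huh7 cells plated a day earlier.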
For orientation: A replicon is a self-replicating genome or part of one, used to study replication in cells.

Structures are written as SMILES. A value given as a limit tells only on which side of the number the result lay.

Consider `CC(C)c1ccc(-c2nc(-c3ccccn3)n[nH]2)cc1` [Compound 389, 2-[5-(4-Isopropyl-phenyl)-1H-[1,2,4]triazol-3-yl]-pyridine], for which the EC50 is > 19 µM.

Take `Cc1cccc(-c2n[nH]c(-c3cccc4ccccc34)n2)n1` [Compound 390, 2-Methyl-6-(5-naphthalen-1-yl-1H-[1,2,4]triazol-3-yl)-pyridine]: the EC50 was > 19 µM.

As to `Cc1cccc(-c2n[nH]c(-c3cc(C(C)(C)C)ccc3O)n2)n1` [Compound 391, 4-tert-Butyl-2-[5-(6-methyl-pyridin-2-yl)-2H-[1,2,4]triazol-3-yl]-phenol], the EC50 was > 19 µM.

As for `Cc1cccc(-c2n[nH]c(-c3cc([N+](=O)[O-])ccc3O)n2)n1` [Compound 392, 4-Nitro-2-(5-(6-methyl-pyridin-2-yl)-2H-[1,2,4]triazol-3-yl)-phenol], the EC50 was > 19 µM.

For `Cc1cccc(-c2n[nH]c(-c3cc(F)ccc3O)n2)n1` [Compound 393, 4-Fluoro-2-(5-(6-methyl-pyridin-2-yl)-2H-[1,2,4]triazol-3-yl)-phenol], the EC50 is > 19 µM.

As to `COc1ccc(O)c(-c2nc(-c3cccc(C)n3)n[nH]2)c1` [Compound 394, 4-Methoxy-2-(5-(6-methyl-pyridin-2-yl)-2H-[1,2,4]triazol-3-yl)-phenol], the EC50 is > 19 µM.

With `Cc1cccc(-c2n[nH]c(-c3cc(Cl)ccc3O)n2)n1` [Compound 395, 4-Chloro-2-(5-(6-methyl-pyridin-2-yl)-2H-[1,2,4]triazol-3-yl)-phenol], the EC50 is > 19 µM.

As for `CCOc1cccc(-c2nc(-c3cccc(C)n3)n[nH]2)c1O` [Compound 396, 6-Ethoxy-2-(5-(6-methyl-pyridin-2-yl)-2H-[1,2,4]triazol-3-yl)-phenol], the EC50 was > 19 µM.

`Cc1cccc(-c2n[nH]c(-c3ccc(OCc4ccccc4)cc3O)n2)n1` [Compound 397, 5-Benzyloxy-2-(5-(6-methyl-pyridin-2-yl)-2H-[1,2,4]triazol-3-yl)-phenol]: the EC50 is > 19 µM.

As to `Cc1cccc(-c2n[nH]c(-c3ccc(-c4ccccc4)c(F)c3)n2)n1` [Compound 398, 2-[5-(2-Fluoro-biphenyl-4-yl)-1H-[1,2,4]triazol-3-yl]-6-methyl-pyridine], the concentration giving a half-maximal response (EC50) is > 19 µM.

With `Cc1cccc(-c2n[nH]c(-c3cc(Br)ccc3O)n2)n1` [Compound 399, 4-Bromo-2-(5-(6-methyl-pyridin-2-yl)-2H-[1,2,4]triazol-3-yl)-phenol], the EC50 is > 19 µM.

For `Cc1ccc(O)c(-c2nc(-c3cccc(C)n3)n[nH]2)c1` [Compound 400, 4-Methyl-2-(5-(6-methyl-pyridin-2-yl)-2H-[1,2,4]triazol-3-yl)-phenol], the EC50 was > 19 µM.

For the molecule `COc1ccc(-c2nc(-c3cccc(C)n3)n[nH]2)c(O)c1` [Compound 401, 5-Methoxy-2-(5-(6-methyl-pyridin-2-yl)-2H-[1,2,4]triazol-3-yl)-phenol], the EC50 was > 19 µM.

With `Cc1cccc(-c2n[nH]c(-c3ccccc3O)n2)n1` [Compound 402, 2-(5-(6-methyl-pyridin-2-yl)-2H-[1,2,4]triazol-3-yl)-phenol], the EC50 is > 19 µM.

For the molecule `COc1cccc(-c2nc(-c3cccc(C)n3)n[nH]2)c1O` [Compound 403, 6-Methoxy-2-(5-(6-methyl-pyridin-2-yl)-2H-[1,2,4]triazol-3-yl)-phenol], the EC50 was > 19 µM.

On to `Cc1cccc(-c2n[nH]c(-c3cccc([N+](=O)[O-])c3)n2)n1` [Compound 404, 6-Methyl-2-[5-(3-nitro-phenyl)-1H-[1,2,4]triazol-3-yl]-pyridine], for which the EC50 was > 19 µM.

Take `COc1cccc(-c2nc(-c3cccc(C)n3)n[nH]2)c1` [Compound 405, 2-[5-(3-Methoxy-phenyl)-1H-[1,2,4]triazol-3-yl]-6-methyl-pyridine]: the EC50 is > 19 µM.

With `COc1ccc(F)c(-c2nc(-c3cccc(C)n3)n[nH]2)c1` [Compound 406, 2-[5-(2-Fluoro-5-methoxy-phenyl)-1H-[1,2,4]triazol-3-yl]-6-methyl-pyridine], the EC50 is > 19 µM.

Regarding `COc1ccc([N+](=O)[O-])cc1-c1nc(-c2cccc(C)n2)n[nH]1` [Compound 407, 2-[5-(2-Methoxy-5-nitro-phenyl)-1H-[1,2,4]triazol-3-yl]-6-methyl-pyridine], the EC50 is > 19 µM.

In the case of `Cc1cccc(-c2n[nH]c(-c3ccc(C(C)C)cc3)n2)n1` [Compound 408, 2-[5-(4-Isopropyl-phenyl)-1H-[1,2,4]triazol-3-yl]-6-methyl-pyridine], the EC50 was > 19 µM.

With `Cc1cccc(-c2n[nH]c(-c3c(O)ccc4ccccc34)n2)n1` [Compound 409, 1-(5-(6-methyl-pyridin-2-yl)-2H-[1,2,4]triazol-3-yl)-naphthalen-2-ol], the EC50 was > 19 µM.

Regarding `FC(F)(F)c1ccncc1-c1n[nH]c(-c2cccc3ccccc23)n1` [Compound 410, 3-(5-Naphthalen-1-yl-1H-[1,2,4]triazol-3-yl)-4-trifluoromethyl-pyridine], the EC50 is 2.9 µM.

On to `CC(C)(C)c1ccc(O)c(-c2nc(-c3cnccc3C(F)(F)F)n[nH]2)c1` [Compound 411, 4-tert-Butyl-2-[5-(4-trifluoromethyl-pyridin-3-yl)-2H-[1,2,4]triazol-3-yl]-phenol], for which the EC50 was determined as 10 µM.

On to `O=[N+]([O-])c1ccc(O)c(-c2nc(-c3cnccc3C(F)(F)F)n[nH]2)c1` [Compound 412, 4-Nitro-2-[5-(4-trifluoromethyl-pyridin-3-yl)-2H-[1,2,4]triazol-3-yl]-phenol], for which the EC50 is > 19 µM.

For the molecule `Oc1ccc(F)cc1-c1nc(-c2cnccc2C(F)(F)F)n[nH]1` [Compound 413, 4-Fluoro-2-[5-(4-trifluoromethyl-pyridin-3-yl)-2H-[1,2,4]triazol-3-yl]-phenol], the EC50 was > 19 µM.

For the molecule `COc1ccc(O)c(-c2nc(-c3cnccc3C(F)(F)F)n[nH]2)c1` [Compound 414, 4-Methoxy-2-[5-(4-trifluoromethyl-pyridin-3-yl)-2H-[1,2,4]triazol-3-yl]-phenol], the EC50 was > 19 µM.

With `Oc1ccc(Cl)cc1-c1nc(-c2cnccc2C(F)(F)F)n[nH]1` [Compound 415, 4-Chloro-2-[5-(4-trifluoromethyl-pyridin-3-yl)-2H-[1,2,4]triazol-3-yl]-phenol], the EC50 turned out to be 14 µM.

In the case of `CCOc1cccc(-c2nc(-c3cnccc3C(F)(F)F)n[nH]2)c1O` [Compound 416, 6-Ethoxy-2-[5-(4-trifluoromethyl-pyridin-3-yl)-2H-[1,2,4]triazol-3-yl]-phenol], the EC50 is > 19 µM.

`Oc1cc(OCc2ccccc2)ccc1-c1nc(-c2cnccc2C(F)(F)F)n[nH]1` [Compound 417, 5-Benzyloxy-2-[5-(4-trifluoromethyl-pyridin-3-yl)-2H-[1,2,4]triazol-3-yl]-phenol]: the EC50 is > 19 µM.

Consider `Fc1cc(-c2nc(-c3cnccc3C(F)(F)F)n[nH]2)ccc1-c1ccccc1` [Compound 418, 3-[5-(2-Fluoro-biphenyl-4-yl)-1H-[1,2,4]triazol-3-yl]-4-trifluoromethyl-pyridine], for which the EC50 stood at 17 µM.

As to `Oc1ccc(Br)cc1-c1nc(-c2cnccc2C(F)(F)F)n[nH]1` [Compound 419, 4-Bromo-2-[5-(4-trifluoromethyl-pyridin-3-yl)-2H-[1,2,4]triazol-3-yl]-phenol], the EC50 is 12 µM.

As to `Cc1ccc(O)c(-c2nc(-c3cnccc3C(F)(F)F)n[nH]2)c1` [Compound 420, 4-Methyl-2-[5-(4-trifluoromethyl-pyridin-3-yl)-2H-[1,2,4]triazol-3-yl]-phenol], the EC50 was found to be 9.7 µM.

Regarding `COc1ccc(-c2nc(-c3cnccc3C(F)(F)F)n[nH]2)c(O)c1` [Compound 421, 5-Methoxy-2-[5-(4-trifluoromethyl-pyridin-3-yl)-2H-[1,2,4]triazol-3-yl]-phenol], the EC50 is > 19 µM.

Take `Oc1ccccc1-c1nc(-c2cnccc2C(F)(F)F)n[nH]1` [Compound 422, 2-[5-(4-trifluoromethyl-pyridin-3-yl)-2H-[1,2,4]triazol-3-yl]-phenol]: the EC50 is > 19 µM.

In the case of `COc1cccc(-c2nc(-c3cnccc3C(F)(F)F)n[nH]2)c1O` [Compound 423, 6-Methoxy-2-[5-(4-trifluoromethyl-pyridin-3-yl)-2H-[1,2,4]triazol-3-yl]-phenol], the EC50 was > 19 µM.

As for `CCN(CC)c1ccc(-c2nc(-c3cnccc3C(F)(F)F)n[nH]2)c(O)c1` [Compound 424, 5-Diethylamino-2-[5-(4-trifluoromethyl-pyridin-3-yl)-2H-[1,2,4]triazol-3-yl]-phenol], the half-maximal effective concentration (EC50) was > 3.2 µM.

For the molecule `CC1(C)CCN2CCC(C)(C)c3c(O)c(-c4nc(-c5cnccc5C(F)(F)F)n[nH]4)cc1c32` [Compound 425, 1,1,7,7-Tetramethyl-9-[5-(4-trifluoromethyl-pyridin-3-yl)-2H-[1,2,4]triazol-3-yl]-2,3,6,7-tetrahydro-1H,5H-pyrido[3,2,1-ij]quinolin-8-ol], the EC50 was 2.9 µM.

On to `Oc1ccc(O)c(-c2nc(-c3cnccc3C(F)(F)F)n[nH]2)c1` [Compound 426, 4-Hydroxy-2-[5-(4-trifluoromethyl-pyridin-3-yl)-2H-[1,2,4]triazol-3-yl]-phenol], for which the EC50 amounted to 12 µM.

As for `COc1cccc(-c2nc(-c3cnccc3C(F)(F)F)n[nH]2)c1` [Compound 427, 3-[5-(3-Methoxy-phenyl)-1H-[1,2,4]triazol-3-yl]-4-trifluoromethyl-pyridine], the EC50 is > 19 µM.

With `CC(C)c1ccc(-c2nc(-c3cnccc3C(F)(F)F)n[nH]2)cc1` [Compound 428, 3-[5-(4-Isopropyl-phenyl)-1H-[1,2,4]triazol-3-yl]-4-trifluoromethyl-pyridine], the concentration giving a half-maximal response (EC50) was > 19 µM.

Consider `Oc1ccc2ccccc2c1-c1nc(-c2cnccc2C(F)(F)F)n[nH]1` [Compound 429, 1-[5-(4-trifluoromethyl-pyridin-3-yl)-2H-[1,2,4]triazol-3-yl]-naphthalen-2-ol], for which the half-maximal effective concentration (EC50) is > 19 µM.

Broadly, the EC50 is the concentration needed to bring the measured effect to its halfway point.

These data come from patent US20050075375A1 (priority 2003, published 2005).
